{
  "source": "BindingDB's records for doi:10.1021/acsmedchemlett.0c00107",
  "about": "(Usona Institute, 2020)",
  "data": [
    {"target": "T1, Estrogen receptor (Homo sapiens, UniProt P03372)", "T1 sequence (P03372 whole entry)": "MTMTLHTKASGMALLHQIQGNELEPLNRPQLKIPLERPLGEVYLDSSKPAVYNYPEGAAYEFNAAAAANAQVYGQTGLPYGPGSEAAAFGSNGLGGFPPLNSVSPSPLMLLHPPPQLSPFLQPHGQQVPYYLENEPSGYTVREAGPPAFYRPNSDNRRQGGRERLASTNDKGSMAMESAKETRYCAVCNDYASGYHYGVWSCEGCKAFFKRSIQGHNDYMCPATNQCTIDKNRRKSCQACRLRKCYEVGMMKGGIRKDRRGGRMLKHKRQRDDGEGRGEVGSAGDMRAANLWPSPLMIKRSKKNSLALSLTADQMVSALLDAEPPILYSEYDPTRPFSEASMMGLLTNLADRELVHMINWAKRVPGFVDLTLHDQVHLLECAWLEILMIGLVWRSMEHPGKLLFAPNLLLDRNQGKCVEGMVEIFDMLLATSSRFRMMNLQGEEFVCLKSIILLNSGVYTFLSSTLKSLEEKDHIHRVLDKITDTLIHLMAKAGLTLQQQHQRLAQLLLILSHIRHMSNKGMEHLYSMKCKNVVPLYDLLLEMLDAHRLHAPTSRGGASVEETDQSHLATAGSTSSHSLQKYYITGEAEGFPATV", "assay": "Induction of ERalpha protein degradation in human MCF7 cells assessed as reduction in ERalpha protein levels incubated for 24 hrs by In-cell western assay", "details": "read-out: IC50 (the source's name)", "units": {"DC50": "nM"}, "values": [
      {"smiles": "O=C(NCCCCOc1ccc(C(=C2C3CC4CC(C3)CC2C4)c2ccc(O)cc2)cc1)[C@H]1CC[C@H](C(F)(F)F)CC1", "DC50": 2},
      {"smiles": "O=C(NCCCCOc1ccc(C(=C2C3CC4CC(C3)CC2C4)c2ccc(O)cc2)cc1)[C@H]1C[C@@H]2C=C[C@H]1C2", "DC50": 0.5},
      {"smiles": "CC(C)(C)OC(=O)N[C@@H](Cc1c[nH]c2ccccc12)C(=O)NCCCCOc1ccc(C(=C2C3CC4CC(C3)CC2C4)c2ccc(O)cc2)cc1", "DC50": 0.5}
    ]}
  ]
}
